Publication PMC8167858, “Crystal structure of a novel homodimeric L‐ribulose 3‐epimerase from Methylomonus sp” (FEBS Open Bio, 2021)

Assays:
[1] = target: T1, his_MetLRE (Methylomonas sp. DH-1, UniProt A0A172U6X0); assay: X-ray crystal structure, […] Å; assay type: binding; details: 0.1 M HEPES pH 7.5, PEG 8000, 8% ethylene glycol
T1 construct: gene AYM39_05640; full length 286 aa, N-terminal His-tag from pET15b (kept), E. coli BL21(DE3), homodimer
T1 sequence (A0A172U6X0 1-286): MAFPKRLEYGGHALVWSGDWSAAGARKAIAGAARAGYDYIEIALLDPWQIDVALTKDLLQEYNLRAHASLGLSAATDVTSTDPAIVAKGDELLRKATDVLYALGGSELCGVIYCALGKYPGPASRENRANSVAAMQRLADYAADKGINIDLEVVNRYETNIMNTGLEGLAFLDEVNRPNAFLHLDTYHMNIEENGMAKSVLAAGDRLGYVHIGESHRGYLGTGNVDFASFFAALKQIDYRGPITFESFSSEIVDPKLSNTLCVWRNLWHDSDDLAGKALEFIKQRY

[2] = target: T2, MetLRE (MetLRE_his) (Methylomonas sp. DH-1, UniProt A0A172U6X0); assay: thermal shift assay (SYPRO Orange); assay type: binding; details: melting temperature, not a shift: reference with Mn alone Tm1_Mn 72.5 ± 0.03 °C; 4 mM D-allulose, 0.8 mM MnCl2, 40 mM Tris/HCl pH 7.6; two-step unfolding, first transition
T2 construct: gene AYM39_05640
T2 sequence (A0A172U6X0 1-286): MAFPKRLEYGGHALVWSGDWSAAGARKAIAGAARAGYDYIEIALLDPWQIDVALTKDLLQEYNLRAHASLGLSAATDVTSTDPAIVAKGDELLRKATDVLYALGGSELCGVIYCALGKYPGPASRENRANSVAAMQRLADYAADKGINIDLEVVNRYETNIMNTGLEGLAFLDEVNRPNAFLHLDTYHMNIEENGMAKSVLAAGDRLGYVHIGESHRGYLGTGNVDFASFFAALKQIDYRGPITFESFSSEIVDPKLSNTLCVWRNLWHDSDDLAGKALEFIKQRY
Source text: thermal shift assay (SYPRO Orange) on MetLRE (MetLRE_his) | in the presence of Mn and D‐allulose (cyan line)

[3] = target: T3, his_MetLRElong2 (Methylomonas sp. DH-1, UniProt A0A172U6X0, Y9I/Y37F/INS286TAIKTIELH/Y286L, form not given); assay: X-ray crystal structure, […] Å; assay type: binding; details: 0.1 M HEPES pH 7.5, PEG 8000, 8% ethylene glycol
T3 construct: gene AYM39_05640; full length with Y9I, Y37F, Y286L and nine extra residues TAIKTIELH added after residue 286 at the C terminus; N-terminal His-tag from pET15b (kept), E. coli BL21(DE3), homodimer

[4] = target: T2, MetLRE (MetLRE_his); assay: X-ray crystal structure, […] Å; assay type: binding; details: crystal soaked in 15% (w/v) D-fructose; catalytic site with Mn2+; second site: beta-D-fructopyranose on surface near C terminus of Mol-A
[5] = target: T2, MetLRE (MetLRE_his); assay: X-ray crystal structure, […] Å; assay type: binding
[6] = substrate: O=C(CO)[C@@H](O)[C@@H](O)CO; assay: epimerization, product by HPLC; assay type: biochemical, Methylomonas sp. DH-1; details: 50 mM Tris/HCl pH 7.5, 1 mM MnCl2, 70 °C (conditions of the specificity assay)
[7] = target: the molecule itself; assay: crystal structure; MetLRE_his crystals, alone and soaked with D-fructose, D-allulose or L-tagatose; reservoir 0.2 M MgCl2, 0.1 M Tris/HCl pH 8.5, 25% PEG3350, 293 K; two molecules in an asymmetric unit
[8] = target: the molecule itself; assay: crystal structure; his_MetLRE (with D-allulose) and his_MetLRElong2 (with D-fructose); reservoir 0.1 M HEPES pH 7.5, 10% PEG 8000, 8% ethylene glycol; space group P1, six and eight molecules in an asymmetric unit; symmetry operation and PISA analysis

OCC1(O)OC[C@@H](O)[C@@H](O)[C@H]1O (stereo partly drawn) [D-allulose]
X-ray crystal structure, 2.05 Å [1]: His_MetLRE in complex with D‐allulose was obtained in the triclinic space group P1
Tm1_MnA [2]: 78.5 ± 0.1 °C

OCC1(O)OC[C@@H](O)[C@@H](O)[C@@H]1O (stereo partly drawn) [D-fructose]
X-ray crystal structure, 1.58 Å [3]: the crystal structure of his_MetLRElong2 in complex with D‐fructose was determined
X-ray crystal structure, 1.80 Å [4]: MetLRE_his in complex with D‐fructose was crystallized in the orthorhombic space group

OCC1(O)OC[C@H](O)[C@@H](O)[C@@H]1O (stereo partly drawn) [L-sorbose]
X-ray crystal structure, 1.70 Å ([5]; formed from soaked L-tagatose in crystal, catalytic site of Mol-A with Mn2+): L‐sorbose (C3 epimer of L‐tagatose) was bound in the catalytic site

OCC1(O)OC[C@H](O)[C@@H](O)[C@H]1O (stereo partly drawn) [L-tagatose]
X-ray crystal structure, 1.70 Å ([5]; crystal soaked in 15% (w/v) L-tagatose, catalytic site of Mol-B with Mn2+, second site: alpha-L-tagatopyranose on surface of Mol-B): The bound L‐tagatose was found in the catalytic site of Mol‐B

B1: MetLRE (MetLRE_his) (Methylomonas sp. DH-1) (protein)
chain: MAFPKRLEYGGHALVWSGDWSAAGARKAIAGAARAGYDYIEIALLDPWQIDVALTKDLLQEYNLRAHASLGLSAATDVTSTDPAIVAKGDELLRKATDVLYALGGSELCGVIYCALGKYPGPASRENRANSVAAMQRLADYAADKGINIDLEVVNRYETNIMNTGLEGLAFLDEVNRPNAFLHLDTYHMNIEENGMAKSVLAAGDRLGYVHIGESHRGYLGTGNVDFASFFAALKQIDYRGPITFESFSSEIVDPKLSNTLCVWRNLWHDSDDLAGKALEFIKQRY
Km [6]: 22.4 ± 3.4 mM
kcat [6]: 82.05 ± 5.77 s⁻¹

B2: C-terminal His-tagged L-ribulose 3-epimerase from Methylomonas sp. DH-1 (MetLRE_his) (enzyme, UniProt A0A172U6X0 1-286, looked up)
chain: MAFPKRLEYGGHALVWSGDWSAAGARKAIAGAARAGYDYIEIALLDPWQIDVALTKDLLQEYNLRAHASLGLSAATDVTSTDPAIVAKGDELLRKATDVLYALGGSELCGVIYCALGKYPGPASRENRANSVAAMQRLADYAADKGINIDLEVVNRYETNIMNTGLEGLAFLDEVNRPNAFLHLDTYHMNIEENGMAKSVLAAGDRLGYVHIGESHRGYLGTGNVDFASFFAALKQIDYRGPITFESFSSEIVDPKLSNTLCVWRNLWHDSDDLAGKALEFIKQRY
notes: L-ribulose 3-epimerase (putative sugar isomerase/epimerase) from Methylomonas sp; DH-1, NCBI WP_064020855.1, 286 a.a; synthesized gene amplified from the start codon to the last codon (Y286), then a linker beginning at Gly287 and the His tag; Linker and tag follow Y286: Gly287 and Ser288 are in the linker; also called putative sugar isomerase/epimerase; source: E. coli JM109 (pQE60, plasmid …)
stoichiometry N [7]: 2

B3: N-terminal His-tagged L-ribulose 3-epimerase from Methylomonas sp. DH-1 (his_MetLRE) (enzyme, UniProt A0A172U6X0 1-286, looked up)
chain: MAFPKRLEYGGHALVWSGDWSAAGARKAIAGAARAGYDYIEIALLDPWQIDVALTKDLLQEYNLRAHASLGLSAATDVTSTDPAIVAKGDELLRKATDVLYALGGSELCGVIYCALGKYPGPASRENRANSVAAMQRLADYAADKGINIDLEVVNRYETNIMNTGLEGLAFLDEVNRPNAFLHLDTYHMNIEENGMAKSVLAAGDRLGYVHIGESHRGYLGTGNVDFASFFAALKQIDYRGPITFESFSSEIVDPKLSNTLCVWRNLWHDSDDLAGKALEFIKQRY
notes: L-ribulose 3-epimerase from Methylomonas sp; DH-1, NCBI WP_064020855.1, 286 a.a; primers from the start codon to the stop codon; N-terminal tag and additional residues come from pET15b; source: E. coli BL21(DE3) (pET15b, plasmid pETMetLRE), purified (HisTrap HP); not shown: His tag, N-terminal, kept
stoichiometry N [8]: 2

B4: N-terminal His-tagged MetLRElong2 (his_MetLRE with nine additional residues TAIKTIELH at the C terminus and three mutations Y9I, Y37F, Y286L) (enzyme, Methylomonas sp. DH-1)
chain: MAFPKRLEIGGHALVWSGDWSAAGARKAIAGAARAGFDYIEIALLDPWQIDVALTKDLLQEYNLRAHASLGLSAATDVTSTDPAIVAKGDELLRKATDVLYALGGSELCGVIYCALGKYPGPASRENRANSVAAMQRLADYAADKGINIDLEVVNRYETNIMNTGLEGLAFLDEVNRPNAFLHLDTYHMNIEENGMAKSVLAAGDRLGYVHIGESHRGYLGTGNVDFASFFAALKQIDYRGPITFESFSSEIVDPKLSNTLCVWRNLWHDSDDLAGKALEFIKQRLTAIKTIELH
notes: L-ribulose 3-epimerase from Methylomonas sp; DH-1, NCBI WP_064020855.1, 286 a.a., with three mutations; nine additional residues at the C terminus, chosen on the tetramer form of AgDAE; source: E. coli BL21(DE3) (pET15b, plasmid pETMetLRElong2), purified (HisTrap HP); not shown: His tag, N-terminal, kept
stoichiometry N [8]: 2
